pEC50: −log10 of the molar value.
Tested on: HCV 1b_Huh-Luc/Neo-ET cell line persistently expressing a bicistronic genotype 1b replicon in Huh 7 cells
Experiment: HCV replicon assay (luciferase readout, 72 h)
Format: cell-based, HCV genotype 1b
Settings: Hepatitis C virus, Huh-7, 72 h, read-out: Inhibition of HCV
Method in brief: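 Huh 7 cells carrying a bicistronic genotype 1b luciferase/neo replicon received compound in triplicate the day after plating. After 72 h, replicon levels were read as Bright-Glo luciferase activity, expressed as % of control; EC50 was fitted with a four-parameter logistic and determined several times.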

Row | Structure (SMILES) | pEC50
1 | COC(=O)N[C@H](C(=O)N1CCC[C@H]1c1nc2ccc(C#Cc3ccc4nc([C@@H]5CCCN5C(=O)[C@@H](NC(=O)OC)C(C)C)[nH]c4c3)cc2[nH]1)C(C)C [Compound 852] | > 9.00

Same assay, conditions: Hepatitis C virus, Huh-7, 72 h, read-out: Inhibition of HCV genotype 1b

Row | Structure (SMILES) | pEC50
2 | CC(C)[C@H](NC(=O)OC(C)(C)C)C(=O)N1CCC[C@H]1c1ncc(-c2ccc(C#Cc3ccc(-c4cnc([C@@H]5CCCN5C(=O)[C@@H](NC(=O)OC(C)(C)C)C(C)C)[nH]4)cc3)cc2)[nH]1 [Compound 165] | 6.00 to 8.00
3 | CC(C)[C@H](NC(=O)N1CCCC1)C(=O)N1CCC[C@H]1c1ncc(-c2ccc(C#Cc3ccc(-c4cnc([C@@H]5CCCN5C(=O)[C@@H](NC(=O)N5CCCC5)C(C)C)[nH]4)cc3)cc2)[nH]1 [Compound 288] | < 6.00
4 | COC(=O)N[C@H](C(=O)N1CCC[C@H]1c1nc2ccc(C#Cc3ccc(-c4cnc([C@@H]5CCCN5C(=O)[C@@H](C(C)C)N(C)C)[nH]4)cc3)cc2[nH]1)C(C)C [Compound 865] | > 9.00
5 | COC(=O)N[C@H](C(=O)N1CCC[C@H]1c1ncc(-c2ccc(C#Cc3ccc(-c4cnc([C@@H]5CCCN5C(=O)[C@@H](c5ccccc5)N5CCN(C)CC5)[nH]4)cc3)cc2)[nH]1)C(C)C [Compound 957] | > 9.00
6 | COC(=O)N[C@H](C(=O)N1CCC[C@H]1c1nc(-c2ccc3cc(C#Cc4[nH]c([C@@H]5CCCN5C(=O)[C@@H](NC(=O)OC)C(C)C)nc4C(F)(F)F)ccc3c2)c[nH]1)C(C)C [Compound 1082] | > 9.00
7 | COC(=O)N[C@@H](C(=O)N1CCC[C@H]1c1ncc(-c2ccc(C#Cc3ccc(-c4cnc([C@@H]5CCCN5C(=O)[C@H](NC(=O)N5CC[C@H](OC)C5)c5ccccc5)[nH]4)cc3)cc2)[nH]1)c1ccccc1 [Compound 272] | > 9.00
8 | CC(C)(NC(=O)C1CC1)C(=O)N1CCC[C@H]1c1ncc(C#Cc2ccc(-c3cnc([C@@H]4CCCN4C(=O)C(C)(C)NC(=O)C4CC4)[nH]3)cc2)[nH]1 [Compound 108] | < 6.00
9 | O=C(Cc1cccnc1)N[C@@H](C(=O)N1CCC[C@H]1c1cc(-c2ccc(C#Cc3ccc(-c4cnc([C@@H]5CCCN5C(=O)[C@H](NC(=O)Cc5cccnc5)c5ccccc5)[nH]4)cc3)cc2)n[nH]1)c1ccccc1 [Compound 222] | > 9.00
10 | COC(=O)N[C@H](C(=O)N1CCC[C@H]1c1nc2ccc3cc(C#Cc4ccc(-c5cnc([C@@H]6CCCN6C(=O)[C@@H](NC(=O)OC)C6CCOCC6)[nH]5)cc4F)ccc3c2[nH]1)C(C)C [Compound 1099] | > 9.00
11 | CS(=O)(=O)N[C@@H](C(=O)N1CCC[C@H]1c1ncc(-c2ccc(C#Cc3ccc(-c4cnc([C@@H]5CCCN5C(=O)[C@@H](c5ccccc5)N5CCCC5)[nH]4)cc3)cc2)[nH]1)c1ccccc1 [Compound 230] | > 9.00
12 | COC(=O)N[C@H]1CCC[C@@H]1C(=O)N1CCC[C@H]1c1ncc(-c2ccc(C#Cc3ccc4nc([C@@H]5CCCN5C(=O)[C@H]5CCC[C@@H]5NC(=O)OC)[nH]c4c3)cc2)[nH]1 [Compound 1059] | 6.00 to 8.00
13 | COC(=O)N[C@H](C(=O)N[C@@H](C)c1ncc(-c2ccc(C#Cc3ccc(-c4cnc([C@H](C)NC(=O)[C@@H](NC(=O)OC)[C@@H](C)OC)[nH]4)cc3)cc2)[nH]1)[C@@H](C)OC [Compound 952] | 8.00 to 9.00
14 | COC(=O)N[C@@H](C(=O)N1CCC[C@H]1c1ncc(-c2ccc(C#Cc3ccc(-c4cnc([C@@H]5CCCN5C(=O)c5nccn5C)[nH]4)cc3)cc2)[nH]1)c1ccccc1 [Compound 176] | > 9.00
15 | COC(=O)N[C@H](C(=O)N1CCC[C@H]1c1nc2ccc(C#Cc3ccc(-c4ccc5nc([C@@H]6CCCN6C(=O)[C@@H](NC(=O)OC)C(C)C)[nH]c5c4)nc3)cc2[nH]1)C(C)C [compound 1083] | > 9.00
16 | O=C([C@H](O)c1ccccc1)N1CCC[C@H]1c1ncc(C#Cc2ccc(-c3cnc([C@@H]4CCCN4C(=O)[C@H](O)c4ccccc4)[nH]3)cc2)[nH]1 [Compound 112] | > 9.00
17 | COC(=O)N[C@@H](C(=O)N[C@@H](C)c1ncc(-c2ccc(C#Cc3ccc(-c4cnc([C@H](C)NC(=O)[C@H](NC(=O)OC)C(C)C)[nH]4)cc3)cc2)[nH]1)C(C)C [Compound 950] | > 9.00
18 | COC(=O)N[C@H](C(=O)N1CCC[C@H]1c1ncc(-c2ccc(C#Cc3ccc(-c4cnc([C@@H]5CCCN5C(=O)[C@H](C(C)C)N(C)C)[nH]4)cc3)cc2)[nH]1)C(C)C [Compound 953] | 8.00 to 9.00

Row | Structure (SMILES) | pEC50
19 | COC(=O)N[C@H](C(=O)N1CCOC[C@H]1c1ncc(-c2ccc(C#Cc3ccc4nc([C@@H]5CCCN5C(=O)[C@@H](NC(=O)OC)C(C)C)[nH]c4c3)cc2)[nH]1)C(C)C [Compound 1027] | > 9.00
20 | O=C(N[C@@H](C(=O)N1CCC[C@H]1c1ncc(-c2ccc(C#Cc3ccc(-c4cnc([C@@H]5CCCN5C(=O)[C@@H](c5ccccc5)N5CCCC5)[nH]4)cc3)cc2)[nH]1)c1ccccc1)C1CC1 [Compound 217] | > 9.00
21 | O=C(N[C@@H](C(=O)N1CCC[C@H]1c1ncc(C#Cc2ccc(-c3ccc(-c4cnc([C@@H]5CCCN5C(=O)[C@H](NC(=O)N5CC[C@H](O)C5)c5ccccc5)[nH]4)cc3)cc2)[nH]1)c1ccccc1)N1CC[C@H](O)C1 [Compound 762] | > 9.00
22 | COC(=O)N[C@H](C(=O)N1CCC[C@H]1c1nc(-c2cnc3cc(C#Cc4ccc(-c5cnc([C@@H]6CCCN6C(=O)[C@@H](NC(=O)OC)c6ccccc6)[nH]5)cc4)ccc3c2)c[nH]1)c1ccccc1 [Compound 1089] | 6.00 to 8.00
23 | CC(C)[C@@H](NC(=O)C1CC1)C(=O)N1CCC[C@H]1c1ncc(-c2ccc(C#Cc3ccc(-c4cnc([C@@H]5CCCN5C(=O)[C@H](NC(=O)C5CC5)C(C)C)[nH]4)cc3)cc2)[nH]1 [Compound 155] | 8.00 to 9.00
24 | COC(=O)N[C@@H](C(=O)N1CCC[C@H]1c1ncc(-c2ccc(C#Cc3ccc(-c4cnc([C@@H]5CCCN5C(=O)[C@H](NC(=O)[C@H]5CCCO5)c5ccccc5)[nH]4)cc3)cc2)[nH]1)c1ccccc1 [Compound 201] | > 9.00
25 | COC(=O)N[C@H](C(=O)N1CCC[C@H]1c1ncc(-c2ccc(C#Cc3ccc(-c4cnc([C@@H]5CCCN5C(=O)[C@@H](NC(=O)OC)C5CCOCC5)[nH]4)c(F)c3)cc2)[nH]1)C1CCOCC1 [Compound 1012] | > 9.00
26 | COC(=O)N[C@H](C(=O)N1CCC[C@H]1c1ncc(-c2ccc(C#Cc3ccc(-c4cnc([C@H](C)NC(=O)[C@H](C(C)C)N(C)C)[nH]4)cc3)cc2)[nH]1)C(C)C [Compound 981] | 6.00 to 8.00
27 | COC(=O)N[C@@H](Cc1cnc[nH]1)C(=O)N1CCC[C@H]1c1ncc(-c2ccc(C#Cc3ccc4nc([C@@H]5CCCN5C(=O)[C@H](Cc5cnc[nH]5)NC(=O)OC)[nH]c4c3)cc2)[nH]1 [Compound 1048] | 8.00 to 9.00
28 | COC(=O)N[C@H](C(=O)N1CCC[C@H]1c1ncc(-c2ccc(C#Cc3ccc4nc([C@@H]5CCCN5C(=O)[C@@H](C(C)C)N(C)C)[nH]c4c3)cc2)[nH]1)C(C)C [Compound 1020] | > 9.00
29 | C[C@@H]1OC(=O)N[C@H]1C(=O)N1CCC[C@H]1c1ncc(-c2ccc(C#Cc3ccc(-c4cnc([C@@H]5CCCN5C(=O)[C@@H]5NC(=O)O[C@H]5C)[nH]4)cc3)cc2)[nH]1 [Compound 1000] | 6.00 to 8.00
30 | COC(=O)N[C@@H](C(=O)N1CCC[C@H]1c1ncc(C#Cc2ccc(-c3ccc(-c4cnc([C@@H]5CCCN5C(=O)[C@H](NC(=O)C5CC5)c5ccccc5)[nH]4)cc3)cc2)[nH]1)c1ccccc1 [Compound 754] | > 9.00
31 | CC1(O)CCN(C(=O)N[C@@H](C(=O)N2CCC[C@H]2c2nc(-c3ccc4cc(C#Cc5cnc([C@@H]6CCCN6C(=O)[C@H](NC(=O)N6CCC(C)(O)CC6)c6ccccc6)[nH]5)ccc4c3)c[nH]2)c2ccccc2)CC1 [Compound 805] | > 9.00
32 | COC(=O)N[C@H](C(=O)N1CCC[C@H]1c1ncc(-c2ccc(C#Cc3ccc(-c4cnc([C@@H]5CCCN5C(=O)[C@@H](NC(=O)OC)[C@@H](C)OC)[nH]4)cc3)cc2)[nH]1)[C@@H](C)OC [Compound 284] | > 9.00
33 | C[C@H](NC(=O)[C@@H]1CCCN1C(=O)[C@H](NC(=O)C1CC1)c1ccccc1)c1ccc(C#Cc2cnc([C@@H]3CCCN3C(=O)[C@H](NC(=O)C3CC3)c3ccccc3)[nH]2)cc1 [Compound 132] | 6.00 to 8.00
34 | COC(=O)N[C@@H](C(=O)N1CCC[C@H]1c1ncc(C#Cc2ccc(-c3cnc([C@@H]4CCCN4C(=O)[C@H](NC(=O)OC)c4ccccc4)[nH]3)cc2)[nH]1)c1ccccc1 [Compound 110] | > 9.00
35 | CCN(CC)[C@@H](C(=O)N1CCC[C@H]1c1ncc(-c2ccc(C#Cc3ccc(-c4cnc([C@@H]5CCCN5C(=O)[C@@H](c5ccccc5)N(CC)CC)[nH]4)cc3)cc2)[nH]1)c1ccccc1 [Compound 173] | > 9.00

Same assay, conditions: Hepatitis C virus, Huh-7, read-out: Inhibition of HCV genotype 1b

Row | Structure (SMILES) | pEC50
36 | COC(=O)N[C@H](C(=O)N1CCN(C(=O)OC)C[C@H]1c1ncc(-c2ccc(C#Cc3ccc4nc([C@@H]5CCCN5C(=O)[C@H](NC(=O)OC5CCOCC5)c5ccccc5)[nH]c4c3)cc2)[nH]1)C(C)C [Compound 1231] | > 9.00
37 | CC[C@H](C)[C@H](NC(=O)OC)C(=O)N1CCC[C@H]1c1ncc(-c2ccc(C#Cc3ccc4nc([C@@H]5CCCN5C(=O)[C@@H](NC(=O)OC)[C@@H](C)CC)[nH]c4n3)cc2)[nH]1 [Compound 1251] | > 9.00
38 | COC(=O)N[C@H](C(=O)N1CCC[C@H]1c1ncc(-c2ccc(C#Cc3ccc4nc([C@@H]5CCCN5C(=O)[C@@H](NC(=O)OC)C(C)C)[nH]c4n3)cc2)[nH]1)C(C)C [Compound 1249] | > 9.00
39 | CC[C@H](C)[C@H](NC(=O)OC)C(=O)N1CCC[C@H]1c1ncc(-c2ccc(C#Cc3ccc(-c4cnc([C@@H]5CCCN5C(=O)[C@@H](NC(=O)OC)C5CCOCC5)[nH]4)cc3)cc2)[nH]1 [Compound 1220] | > 9.00
40 | COC[C@H](NC(=O)OC)C(=O)N1CCC[C@H]1c1nc2ccc(C#Cc3ccc(-c4cnc([C@@H]5CCCN5C(=O)[C@@H](NC(=O)OC)C(C)C)[nH]4)cc3)cc2[nH]1 [Compound 1243] | > 9.00
41 | [2H]C([2H])([2H])C([2H])(C([2H])([2H])[2H])[C@@]([2H])(NC(=O)OC)C(=O)N1CCC[C@H]1c1nc2ccc(C#Cc3ccc4c(ccc5nc([C@@H]6CCCN6C(=O)[C@@H](NC(=O)OC)C(C)C)[nH]c54)c3)cc2[nH]1 [Compound 1278] | > 9.00
